Source: US20100029732A1, “Combinations of Beta-2-Adrenoceptor Agonistic Benzothiazolone” (ASTRAZENECA AB, priority 2007, published 2010)
Structures can show the parent of a compound that is named as a salt.

Tests used:
[1] = system: LPS-induced intra-alveolar neutrophilia; assay: Intra-alveolar neutrophil migration after intratracheal LPS challenge in the CRL:CD rat; format: in vivo; details: Compound W 3 ng/kg intratracheal 30 min prior to LPS 10 μg/kg; BAL 4 hr; mean±s.e.mean
Method: LPS challenge in CRL:CD rats causes an influx of neutrophils into the lungs. Under recoverable gaseous anaesthesia (5% isoflourane in oxygen), rats were dosed via the intatracheal route with vehicle (0.05M phosphate, 0.1% Tween 80, 0.6% saline, pH 6), or compound 30 min before challenge with an intratracheal dose of 10 μg/kg LPS.
The rats (250-400 g) were euthanized 4 hr after LPS challenge with 1 mL pentobarbitone sodium. A tracheotomy was performed and a calinula inserted. The airway was then lavaged using 3 mL Isoton at room temperature. The Isoton (BeckmanCoulter, High Wycombe, UK) was left in the airway for 10 seconds before being removed. The bronchio-alveolar lavage (BAL) fluid containing inflammatory cells was placed into a 15 mL centrifuge tube and kept on ice. This process was repeated three times. An aliquot of BAL fluid was removed and the inflammatory cells were counted on Sysmex (Sysmex UK, Milton Keynes). Neutrophils were expressed in millions/animal (mean±s.e.mean).

Adrenergic β2 = molecular target: T1, Adrenergic β2 (Homo sapiens, UniProt P07550); assay: Adrenergic β2 mediated cAMP production in H292 cells (AlphaScreen); format: cell-based
T1 construct: Adherent H292 cells were removed from tissue culture flasks; endogenous in cells; host or cells: H292 cells
Method: Adrenergic β2 Mediated cAMP Production
H292 cells were grown in 225 cm2 flasks incubator at 37° C., 5% CO2 in RPMI medium containing, 10% (v/v) FBS (foetal bovine serum) and 2 mM L-glutamine.
Adherent H292 cells were removed from tissue culture flasks by treatment with Accutase™ cell detachment solution for 15 minutes. Flasks were incubated for 15 minutes in a humidified incubator at 37° C., 5% CO2. Detached cells were re-suspended in RPMI media (containing 10% (v/v) FBS and […] L-glutamine) at 0.05×10^6 cells per 1 mL. 5000 cells in 100 μL were added to each well of a tissue-culture-treated 96-well plate and the cells incubated overnight in a humidified incubator at 37° C., 5% CO2. The culture media was removed and cells were washed twice with 100 μL assay buffer and replaced with 50 μL assay buffer (HBSS solution containing 10 mM HEPES pH7.4 and 5 mM glucose). […]
The concentration of cAMP (cyclic adenosine monophosphate) in the cell lysate was determined using AlphaScreen™ methodology. […] The AlphaScreen™ signal was measured using an EnVision spectrophotometer (Perkin-Elmer Inc.) with the recommended manufacturer's settings. cAMP concentrations were determined by reference to a calibration curve determined in the same experiment using standard cAMP concentrations. […] Intrinsic Activity was expressed as a fraction relative to the maximum activity determined for formoterol in each experiment. […]

[2] = system: guinea pig trachea contracted with methacholine; assay: Bronchodilator activity in guinea pig isolated tracheal ring preparation: onset measurements; details: rings contracted with methacholine 1 μM, mean±s.e.mean, n=4
Method: Guinea pigs (300-500 g) were killed by cervical dislocation and the trachea was isolated. The trachea was cut into segments 2-3 cartilage rings in width and suspended in 10 ml organ baths in modified Krebs' solution (mM; NaCl, 90; NaHCO3, 45; KCl, 5; MgSO4.7H2O, 0.5; Na2HPO4.2H2O, 1; CaCl2, 2.25; glucose, 10; pH 7.4) gassed with 5% CO2, 95% O2 at 37° C.). The tracheal rings were attached to an isometric force transducer for the measurement of isometric tension. The tissues were washed and a force of 1 g was applied to each tissue. The rings were contracted with methacholine (1 μM). Once the contraction had reached a plateau, vehicle (0.01% DMSO in distilled H2O), compound A (3 nM), roflumilast (1 μM) or a combination of compound A (3 nM) and roflumilast (1 μM) was added and the tissue left until the response had reached a plateau. Data were collected using the Chart 4 software (ADInstruments, Charlgrove, UK). The time to 90% of the maximum effect of the bronchodilator (onset time) was measured and expressed in min (mean±s.e.mean).

[3] = system: methacholine-induced bronchoconstriction; assay: Lung function in anaesthetised guinea-pigs, methacholine challenge; format: in vivo, Dunkin-Hartley guinea pig; details: tiotropium bromide 0.03 μg/kg intratracheal 2 hours prior; after 5 μg/kg i.v. methacholine
Method: Male Dunkin-Hartley guinea pigs (300-600 g) were weighed and dosed with vehicle (0.05M phosphate, 0.1% Tween 80, 0.6% saline, pH 6) or compound via the intratracheal route under recoverable gaseous anaesthesia (5% halothane in oxygen). Animals were dosed with compound or vehicle two hours prior to the administration of histamine or methacholine.
Guinea pigs were anaesthetised with pentobarbitone (1 mL/kg of 60 mg/mL solution i.p.) approximately 30 minutes prior to the first bronchoconstrictor administration. The trachea was cannulated and the animal ventilated using a constant volume respiratory pump (Harvard Rodent Ventilator model 683) at a rate of 60 breath/min and a tidal volume of 5 ml/lkg. […]
The animals were transferred to a Flexivent System (SCIREQ, Montreal, Canada) in order to measure airway resistance. […] Respiratory resistance was measured using the Flexivent “snapshot” facility (1 second duration, 1 Hz frequency). […] After each administration of bronchoconstrictor the peak resistance value was recorded. […] Percentage bronchoprotection produced by a compound was calculated at each dose of brochoconstrictor as follows:
Where % change Rveh is the mean of the maximum percentage change in airway resistance in the vehicle treated group. The results reported were measured after 5 μg/kg histamine or methacholine and were expressed as percentage bronchoprotection (mean±s.e.mean).

T1 sequence (P07550 whole entry): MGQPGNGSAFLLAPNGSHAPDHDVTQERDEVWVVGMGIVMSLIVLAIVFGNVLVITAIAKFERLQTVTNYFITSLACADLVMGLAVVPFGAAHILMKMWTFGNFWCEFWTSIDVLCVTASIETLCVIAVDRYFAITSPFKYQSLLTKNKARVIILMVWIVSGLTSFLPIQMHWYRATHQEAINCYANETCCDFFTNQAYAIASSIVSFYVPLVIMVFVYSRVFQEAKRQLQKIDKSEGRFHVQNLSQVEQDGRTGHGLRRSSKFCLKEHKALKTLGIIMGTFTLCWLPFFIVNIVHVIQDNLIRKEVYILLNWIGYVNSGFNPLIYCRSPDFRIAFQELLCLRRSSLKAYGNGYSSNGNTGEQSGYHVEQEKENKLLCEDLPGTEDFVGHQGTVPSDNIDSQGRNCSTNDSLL

## CNC(=O)c1cc(Cl)c(OC(C)(C)C(=O)O)cc1OC[C@@H](O)CN1CCC2(CC1)Cc1cc(Cl)ccc1O2 [Compound W, 2-{2-Chloro-5-{[(2S)-3-(5-chloro-1′H,3H-spiro[1-benzofuran-2,4′-piperidin]-1′-yl)-2-hydroxypropyl]oxy}-4-[(methylamino)carbonyl]phenoxy}-2-methylpropanoic acid]
[1]
  BAL neutrophils: 6.3±1.1 million/animal

## CCN(CC)CCN(CCNCCc1ccc(O)c2[nH]c(=O)sc12)C(=O)CCOCCc1cccc2ccccc12 [N-[2-(Diethylamino)ethyl]-N-(2-{[2-(4-hydroxy-2-oxo-2,3-dihydro-1,3-benzothiazol-7-yl)ethyl]amino}ethyl)-3-[2-(1-naphthyl)ethoxy]propanamide]
Adrenergic β2; over adrenergic α1D, adrenergic β1 and dopamine D2 activities
  selectivity of β2 adrenoceptor agonism: ≥ 10 fold

## O=C(Nc1c(Cl)cncc1Cl)c1ccc(OC(F)F)c(OCC2CC2)c1 [roflumilast, 3-(cyclopropylmethoxy)-N-(3,5-dichloro-4-pyridinyl)-4-(difluoromethoxy)benzamide, reference compound]
[2]; roflumilast 1 μM
  onset time (time to 90% of the maximum effect of the bronchodilator): 26 ± 1.4 min

## C[N+]1(C)[C@@H]2C[C@@H](OC(=O)C(O)(c3cccs3)c3cccs3)C[C@H]1[C@@H]1O[C@@H]12 [tiotropium bromide, Tiotropium bromide]
[3]
  inhibition of methacholine-induced bronchoconstriction: 13%

## CCN(CC)CCN(CCNCCc1ccc(O)c2[nH]c(=O)sc12)C(=O)CCOCCc1cccc2ccccc12 [Compound A, N-[2-(Diethylamino)ethyl]-N-(2-{[2-(4-hydroxy-2-oxo-2,3-dihydro-1,3-benzothiazol-7-yl)ethyl]amino}ethyl)-3-[2-(1-naphthyl)ethoxy]propanamide dihydrobromide]
Adrenergic β2; Intrinsic Activity as fraction relative to the maximum activity of formoterol
  β2 Int Act: 0.8
[2]; compound A 3 nM
  onset time (time to 90% of the maximum effect of the bronchodilator): 16 ± 3.0 min
